Biological target: T1, purified human Factor XIa (Homo sapiens, UniProt P03951)
T1 construct: purified human Factor XIa; purchased Sekisui Diagnostics
Experiment: Factor XIa Assay (fluorogenic substrate Z-Gly-Pro-Arg-AFC)
Type: biochemical
Details: purified human Factor XIa 40 pM; Z-Gly-Pro-Arg-AFC 100 μM; 50 mM HEPES pH 7.4; read-out: hFXIa Ki (nM), Factor XIa inhibition
Description: The effectiveness of compound of the present invention as inhibitors of Coagulation Factor XIa can be determined using a relevant purified serine protease, and an appropriate synthetic substrate. The rate of hydrolysis of the chromogenic or fluorogenic substrate by the relevant serine protease was measured both in the absence and presence of compounds of the present invention. Assays were conducted at room temperature or at 37° C. […] A decrease in the rate of fluorescence change in the presence of inhibitor is indicative of enzyme inhibition. Such methods are known to one skilled in the art. The results of this assay are expressed as the inhibitory constant, Ki.
Factor XIa determinations were made in 50 mM HEPES buffer at pH 7.4 containing 150 mM NaCl, 5 mM CaCl2, and 0.1% PEG 8000 (polyethylene glycol; J T Baker or Fisher Scientific). Determinations were made using purified human Factor XIa at a final concentration of 40 pM (Sekisui Diagnostics) and he synthetic substrate, Z-Gly-Pro-Arg-AFC, TFA salt (Sigma #C0980) at a concentration of 100 μM.
Activity assays were performed by diluting a stock solution of substrate at least tenfold to a final concentration ≦0.1 Km into a solution containing enzyme or enzyme equilibrated with inhibitor. Times required to achieve equilibration between enzyme and inhibitor were determined in control experiments. Initial velocities of product formation in the absence (Vo) or presence of inhibitor (Vi) were measured. Assuming competitive inhibition, and that unity is negligible compared Km/[S], [I]/e, and [I]/e (where [S], [I], and e respectively represent the total concentrations, of substrate, inhibitor and enzyme), the equilibrium constant (Ki) for dissociation of the inhibitor from the enzyme can be obtained from the dependence of Vo/Vi on [I] shown in the following equation.

T1 sequence (P03951 388-625 limits assumed): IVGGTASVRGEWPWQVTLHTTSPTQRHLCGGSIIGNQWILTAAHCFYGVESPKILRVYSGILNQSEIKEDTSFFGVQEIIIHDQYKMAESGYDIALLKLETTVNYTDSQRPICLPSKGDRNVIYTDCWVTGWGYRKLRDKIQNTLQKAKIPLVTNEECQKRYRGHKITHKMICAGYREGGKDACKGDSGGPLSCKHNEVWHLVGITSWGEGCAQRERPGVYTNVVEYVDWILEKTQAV
T1 sequence (P03951 19-387 partner limits assumed): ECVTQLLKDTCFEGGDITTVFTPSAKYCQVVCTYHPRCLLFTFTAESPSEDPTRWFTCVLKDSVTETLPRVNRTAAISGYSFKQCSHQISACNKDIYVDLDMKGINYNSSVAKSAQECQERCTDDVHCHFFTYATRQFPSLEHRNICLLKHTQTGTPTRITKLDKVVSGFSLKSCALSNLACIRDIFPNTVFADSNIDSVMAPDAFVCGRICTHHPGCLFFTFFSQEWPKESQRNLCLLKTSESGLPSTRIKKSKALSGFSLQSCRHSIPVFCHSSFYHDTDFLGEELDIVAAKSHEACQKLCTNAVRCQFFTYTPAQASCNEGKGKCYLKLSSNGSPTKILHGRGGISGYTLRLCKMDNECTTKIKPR

Compound	Ki
O=C(/C=C/c1cc(Cl)ccc1-n1cnnn1)N1CCCC(c2ccccc2)C1c1nc(-c2ccc(Cl)cc2)c[nH]1 (stereo not shown) [Example 1-21, (E)-3-(5-chloro-2-(1H-tetrazol-1-yl)phenyl)-1-(2-(4-(4-chlorophenyl)-1H-imidazol-2-yl)-3-phenylpiperidin-1-yl)prop-2-en-1-one]	> 10000 nM
N#Cc1ccc(-c2c[nH]c(C3C(c4ccccc4)CCCN3C(=O)/C=C/c3cc(Cl)ccc3-n3cnnn3)n2)cc1 (stereo not shown) [Example 1-22, (E)-4-(2-(1-(3-(5-chloro-2-(1H-tetrazol-1-yl)phenyl)acryloyl)-3-phenylpiperidin-2-yl)-1H-imidazol-4-yl)benzonitrile]	3260 nM
O=C(CCc1cc(Cl)ccc1-n1cnnn1)N1CCCC(c2ccccc2)C1c1nc(-c2ccc(Cl)cc2)c[nH]1 (stereo not shown) [Example 1-23, 3-(5-chloro-2-(1H-tetrazol-1-yl)phenyl)-1-(2-(4-(4-chlorophenyl)-1H-imidazol-2-yl)-3-phenylpiperidin-1-yl)propan-1-one]	> 10000 nM
N#Cc1ccc(-c2c[nH]c(C3C(c4ccccc4)CCCN3C(=O)CCc3cc(Cl)ccc3-n3cnnn3)n2)cc1 (stereo not shown) [Example 1-24, 4-(2-(1-(3-(5-chloro-2-(1H-tetrazol-1-yl)phenyl)propanoyl)-3-phenylpiperidin-2-yl)-1H-imidazol-4-yl)benzonitrile]	8510 nM
N#Cc1cccc(-c2c[nH]c(C3C(c4ccccc4)CCCN3C(=O)/C=C/c3cc(Cl)ccc3-n3cnnn3)n2)c1 (stereo not shown) [Example 1-27, (E)-3-(2-(1-(3-(5-chloro-2-(1H-tetrazol-1-yl)phenyl)acryloyl)-3-phenylpiperidin-2-yl)-1H-imidazol-4-yl)benzonitrile]	> 10000 nM
COc1cccc(-c2c[nH]c(C3C(c4ccccc4)CCCN3C(=O)/C=C/c3cc(Cl)ccc3-n3cnnn3)n2)c1 (stereo not shown) [Example 1-28, (E)-3-(5-chloro-2-(1H-tetrazol-1-yl)phenyl)-1-(2-(4-(3-methoxyphenyl)-1H-imidazol-2-yl)-3-phenylpiperidin-1-yl)prop-2-en-1-one]	> 10000 nM
CS(=O)(=O)c1ccc(-c2c[nH]c(C3C(c4ccccc4)CCCN3C(=O)/C=C/c3cc(Cl)ccc3-n3cnnn3)n2)cc1 (stereo not shown) [Example 1-29, (E)-3-(5-chloro-2-(1H-tetrazol-1-yl)phenyl)-1-(2-(4-(4-(methylsulfonyl)phenyl)-1H-imidazol-2-yl)-3-phenylpiperidin-1-yl)prop-2-en-1-one]	> 10000 nM
O=C(/C=C/c1cc(Cl)ccc1-n1cnnn1)N1CCCC(c2ccccc2)C1c1nc(-c2ccc(C(F)(F)F)cc2)c[nH]1 (stereo not shown) [Example 1-30, (E)-3-(5-chloro-2-(1H-tetrazol-1-yl)phenyl)-1-(3-phenyl-2-(4-(4-(trifluoromethyl)phenyl)-1H-imidazol-2-yl)piperidin-1-yl)prop-2-en-1-one]	> 10000 nM
O=C(/C=C/c1cc(Cl)ccc1-n1cnnn1)N1CCCC(c2ccccc2)C1c1nc(-c2cccc(C(F)(F)F)c2)c[nH]1 (stereo not shown) [Example 1-31, (E)-3-(5-chloro-2-(1H-tetrazol-1-yl)phenyl)-1-(3-phenyl-2-(4-(3-(tifluoromethyl)phenyl)-1H-imidazol-2-yl)piperidin-1-yl)prop-2-en-1-one]	> 10000 nM
COC(=O)c1ccc(-c2c[nH]c(C3C(c4ccccc4)CCCN3C(=O)/C=C/c3cc(Cl)ccc3-n3cnnn3)n2)cc1 (stereo not shown) [Example 1-40, (E)-methyl 4-(2-(1-(3-(5-chloro-2-(1H-tetrazol-1-yl)phenyl)acryloyl)-3-phenylpiperidin-2-yl)-1H-imidazol-4-yl)benzoate]	> 10000 nM
O=C(/C=C/c1cc(Cl)ccc1-n1cnnn1)N1CCCC(c2ccccc2)C1c1nc(-c2ccccn2)c[nH]1 (stereo not shown) [Example 1-41, (E)-3-(5-chloro-2-(1H-tetrazol-1-yl)phenyl)-1-(3-phenyl-2-(4-(pyridin-2-yl)-1H-imidazol-2-yl)piperidin-1-yl)prop-2-en-1-one]	3270 nM

Now those with a lower Ki, led by results:

Ki	Compound
2820 nM	O=C(O)c1ccc(-c2c[nH]c(C3C(c4ccccc4)CCCN3C(=O)/C=C/c3cc(Cl)ccc3-n3cnnn3)n2)cc1 (stereo not shown) [Example 1-45, (E)-4-(2-(1-(3-(5-chloro-2-(1H-tetrazol-1-yl)phenyl)acryloyl)-3-phenylpiperidin-2-yl)-1H-imidazol-4-yl)benzoic acid]
627 nM	NCc1ccc(C(=O)N2CCCC(c3ccccc3)C2C(=O)Nc2ccc(C(=O)O)cc2)cc1 (stereo not shown) [Example 1-20, (4-(2-((4-carboxyphenyl)carbamoyl)-3-phenylpiperidine-1-carbonyl)phenyl)methanaminium 2,2,2-trifluoroacetate]
411 nM	COC(=O)Nc1ccc(-c2c[nH]c(C3C(c4ccccc4)CCCN3C(=O)/C=C/c3cc(Cl)ccc3-n3cnnn3)n2)c(Br)c1 (stereo not shown) [Example 1-44, (E)-methyl (3-bromo-4-(2-(1-(3-(5-chloro-2-(1H-tetrazol-1-yl)phenyl)acryloyl)-3-phenylpiperidin-2-yl)-1H-imidazol-4-yl)phenyl)carbamate]
237 nM	O=C(/C=C/c1cc(Cl)ccc1-n1cnnn1)N1CCCC(c2ccccc2)C1c1nc(-c2ccncc2)c[nH]1 (stereo not shown) [Example 1-42, (E)-3-(5-chloro-2-(1H-tetrazol-1-yl)phenyl)-1-(3-phenyl-2-(4-(pyridin-4-yl)-1H-imidazol-2-yl)piperidin-1-yl)prop-2-en-1-one]
218 nM	O=C(O)c1ccc(NC(=O)C2C(c3ccc(C(F)(F)F)cc3)CCCN2C(=O)/C=C/c2cc(Cl)ccc2-n2cnnn2)cc1 (stereo not shown) [Example 1-32, (E)-4-(1-(3-(5-chloro-2-(1H-tetrazol-1-yl)phenyl)acryloyl)-3-(4-(trifluoromethyl)phenyl)piperidine-2-carboxamido)benzoic acid]
169 nM	NCc1ccc(C(=O)N2CCCC(c3ccccc3)C2C(=O)Nc2ccc(C(=O)O)cc2)cc1C1CC1 (stereo not shown) [Example 1-43, (4-(2-((4-carboxyphenyl)carbamoyl)-3-phenylpiperidine-1-carbonyl)-2-cyclopropylphenyl)methanaminium 2,2,2-trifluoroacetate]
122 nM	O=C(O)c1ccc(NC(=O)C2C(c3ccc(OC(F)(F)F)cc3)CCCN2C(=O)/C=C/c2cc(Cl)ccc2-n2cnnn2)cc1 (stereo not shown) [Example 1-35, (E)-4-(1-(3-(5-chloro-2-(1H-tetrazol-1-yl)phenyl)acryloyl)-3-(4-(tifluoromethoxy)phenyl)piperidine-2-carboxamido)benzoic acid]
90 nM	COC(=O)Nc1ccc(-c2c[nH]c(C3C(c4ccccc4)CCCN3C(=O)/C=C/c3cc(Cl)ccc3-n3cnnn3)n2)cc1 (stereo not shown) [Example 1-38, (E)-methyl (4-(2-(1-(3-(5-chloro-2-(1H-tetrazol-1-yl)phenyl)acryloyl)-3-phenylpiperidin-2-yl)-1H-imidazol-4-yl)phenyl)carbamate]
65.5 nM	COC(=O)Nc1ccc(-c2c[nH]c(C3C(c4ccccc4)CCCN3C(=O)/C=C/c3cc(Cl)ccc3-n3cnnn3)n2)cc1 (stereo not shown) [Example 1-46, (E)-methyl (4-(2-(1-(3-(5-chloro-2-(1H-tetrazol-1-yl)phenyl)acryloyl)-3-phenylpiperidin-2-yl)-1H-imidazol-4-yl)phenyl)carbamate]
51.5 nM	Cc1cc(C2CCCN(C(=O)/C=C/c3cc(Cl)ccc3-n3cnnn3)C2C(=O)Nc2ccc(C(=O)O)cc2)ccc1F (stereo not shown) [Example 1-37, (E)-4-(1-(3-(5-chloro-2-(1H-tetrazol-1-yl)phenyl)acryloyl)-3-(4-fluoro-3-methylphenyl)piperidine-2-carboxamido)benzoic acid]
46.7 nM	Nc1ccc(C2CCCN(C(=O)/C=C/c3cc(Cl)ccc3-n3cnnn3)C2C(=O)Nc2ccc(C(=O)O)cc2)cc1 (stereo not shown) [Example 1-33, (E)-4-(3-(4-aminophenyl)-1-(3-(5-chloro-2-(1H-tetrazol-1-yl)phenyl)acryloyl)piperidine-2-carboxamido)benzoic]
45.6 nM	NCC1CCC(C(=O)N2CCCC(c3ccccc3)C2C(=O)Nc2ccc(C(=O)O)cc2)CC1 (stereo not shown) [Example 1-39, (4-(2-((4-carboxyphenyl)carbamoyl)-3-phenylpiperidine-1-carbonyl)cyclohexyl)methanaminium 2,2,2-trifluoroacetate]
36.2 nM	NC(=O)c1ccc(C2CCCN(C(=O)/C=C/c3cc(Cl)ccc3-n3cnnn3)C2C(=O)Nc2ccc(C(=O)O)cc2)cc1 (stereo not shown) [Example 1-36, (E)-4-(3-(4-carbamoylphenyl)-1-(3-(5-chloro-2-(1H-tetrazol-1-yl)phenyl)acryloyl)piperidine-2-carboxamido)benzoic acid]
24.9 nM	O=C(/C=C/c1cc(Cl)ccc1-n1cnnn1)Nc1ccc(C2CCCN(C(=O)/C=C/c3cc(Cl)ccc3-n3cnnn3)C2C(=O)Nc2ccc(C(=O)O)cc2)cc1 (stereo not shown) [Example 1-34, 4-(3-(4-((E)-3-(5-chloro-2-(1H-tetrazol-1-yl)phenyl)acrylamido)phenyl)-1-((E)-3-(5-chloro-2-(1H-tetrazol-1-yl)phenyl)acryloyl)piperidine-2-carboxamido)benzoic acid]

Source: patent US20160229839A1, “Factor XIa Inhibitors” (Merck Sharp & Dohme Corp., priority 2013, published 2016)
